Reference: US6924298B2, “2-(3,5-Disubstituted-4-pyridyl)-4-(thienyl, thiazolyl or arylphenyl)-1,3-oxazoline compounds” (Dow AgroSciences LLC, priority 2000, dated 2005)
Read-outs that look alike come from different tables or passages of the source.

Experiments:
Assay type in all cases: in vivo
[1] = tested on: sweetpotato whitefly (Bemisia tabacia); test: Insecticidal test for sweetpotato whitefly, spray on cotton plants; conditions: 312 h, 200 ppm spray, large nymphs counted after 13 days, read-out: WF: activity at 200 ppm against whitefly (% Control rating)
Description: Insecticidal Test for Sweetpotato Whitefly (Bemisia tabacia)
Four mg of each test compound was dissolved by adding 4 mL of a 90:10 acetone:ethanol solvent mixture to the vial containing the sample compound. This solution was added to 16 mL of water containing 0.05% Tween 20 surfactant to produce 20 mL of a 200 ppm spray solution.
Five-week-old cotton plants reared in a greenhouse were stripped of all foliage except for the two uppermost true leaves that were greater than 5 cm in diameter.
These plants were then placed into a laboratory colony of whiteflies for two days for oviposition by the colony females. All whiteflies were then removed from the test plants with pressurized air. The spray solution was then applied to the test plants with a hand-held syringe fitted with hollow cone nozzle. One mL of spray solution was applied to each leaf top and bottom for a total of 4 mL per plant. Four replications of each test compound utilized a total of 16 mL spray solution. Plants were air dried and then placed in a holding chamber (28° C. and 60% RH) for 13 days. Compound efficacy was evaluated by counting, under an illuminated magnifying glass, the number of large nymphs (3rd-4th instar) per leaf.
Percent control based on reduction of large nymphs of a test compound compared to solution-only (no test compound) sprayed plants is reported in Tables 1-4.

[2] = tested on: cotton aphid (Aphis gossypii); test: Insecticidal test for cotton aphid, spray on infested squash cotyledons; conditions: Aphis gossypii, 72 h, read-out: CA: activity at 50 ppm against cotton aphid (% Control rating)
Description: Insecticidal Test for Cotton Aphid (Aphis gossypii)
To prepare spray solutions, 1 mg of each test compound was dissolved into 1 mL of a 90:10 acetone:ethanol solvent. This 1 mL of chemical solution was added to 19 mL of water containing 0.05% Tween 20 surfactant to produce a 50 ppm spray solution.
Squash cotyledons were infested with cotton aphid (all life stages)16-20 hours prior to application of spray solution. The solution was sprayed on both sides of each infested squash cotyledon (0.5 mL×2 each side) with a sweeping action until runoff. The plants were allowed to air dry and held for 3 days in a controlled room at 26° C. and 40% RH after which time the test was graded. Grading was by actual count using a dissecting microscope and comparison of test counts to the untreated check. Results are given in Tables 1-4 as percent control based on population reduction versus the untreated.

[3] = tested on: two-spotted spider mite (Tetranychus urticae); test: Insecticidal test for two-spotted spider mite, ovicide method on cotton leaf discs; conditions: Tetranychus urticae, foliar, 144 h, hatched larvae after 6 days, read-out: SM: activity against two-spotted spider mite (% Control rating)
Description: Insecticidal Test for Two-Spotted Spider Mite (Tetranychus urticae) Ovicide Method: Ten adult female two-spotted spider mites were placed on eight 2.2 cm leaf discs of cotton leaf, allowed to oviposit over 24 hours, and thereafter removed. […] Discs were placed on an agar substrate and held at 24° C. and 90% RH for 6 days.

[4] = tested on: beet armyworm (Spodoptera exigua); test: Insecticidal test for beet armyworm, treated lepidopteran diet; conditions: Spodoptera exigua, 120 h, read-out: BAW: activity at 400 ppm against beet armyworm (% Control rating)
Description: (§1) Insecticidal Test for Tobacco Budworm (Heliothis virescens), Beet Armyworm (Spodoptera exigua), and Cabbage Looper (Trichoplusia ni).
(§2) To prepare the test solution, the test compound was formulated at 400 ppm in 7.5 mL of 2 acetone:1 tap water. 250 μL of the test solution was pipetted upon the surface of 8 mL of lepidopteran diet (modified Shorey) contained in each of five one-ounce plastic cups (one cup=1 replication). A second-instar beet armyworm was placed upon the treated diet in each cup once the solvent had air-dried. The solutions remaining after completing applications to the one-ounce cups were then used as leaf-dip solutions for 3.5 cm leaf discs cut from cabbage leaves and cotton cotyledons. Five discs of each type of plant were dipped until thoroughly coated into each rate of each compound (=5 replications of each treatment). After air-drying, the treated leaf discs were placed individually into one-ounce plastic cups. Each dried, treated cotton cotyledon disc was infested with a 2nd instar tobacco budworm larva, and each cabbage leaf disc was infested with a 2nd instar cabbage looper larva. Cups containing the treated substrates and larvae were capped and then held in a growth chamber at 25° C., 50-55% RH, and 14 hr light: 10 hr dark for 5 days.

[5] = tested on: cabbage looper (Trichoplusia ni); test: Insecticidal test for cabbage looper, treated cabbage leaf disc; conditions: Trichoplusia ni, foliar, 120 h, read-out: CL: activity at 400 ppm against cabbage looper (% Control rating)
Description: as §1, §2

[6] = 50 ppm spray, squash cotyledons, all life stages, 3 days
[7] = 400 ppm, treated diet surface, second-instar larvae, 5 days
[8] = 400 ppm, leaf-dip cabbage leaf disc, 2nd instar larvae, 5 days

SMILES | pest or weed control at 200 ppm [1] [%] | pest or weed control at 50 ppm [2, 6] [%] | pest or weed control [3] [%] | pest or weed control at 400 ppm [4, 7] [%] | pest or weed control at 400 ppm [5, 8] [%] | pest or weed control at 400 ppm [4] [%] | pest or weed control at 400 ppm [5] [%] | pest or weed control at 50 ppm [2] [%]
Clc1cncc(Cl)c1C1=NC(c2ccccc2)CO1 (stereo not drawn) [Compound 1] | < 50 | < 50 |  |  |  |  |  | 
Clc1ccc(C2COC(c3c(Cl)cncc3Cl)=N2)cc1 (stereo not drawn) [Compound 2] | < 50 | 90 to 100 | < 50 |  |  |  |  | 
Fc1ccc(C2COC(c3c(Cl)cncc3Cl)=N2)cc1 (stereo not drawn) [Compound 3] | 80 to 89 | 80 to 89 |  |  |  |  |  | 
Clc1cncc(Cl)c1C1=NC(c2ccc(Br)cc2)CO1 (stereo not drawn) [Compound 4, 2-(3,5-dichloro-4-pyridinyl)-4-(4-bromophenyl)oxazoline] |  | 90 to 100 | 90 to 100 |  |  |  |  | 
FC(F)(F)Oc1ccc(-c2ccc(C3COC(c4c(Cl)cncc4Cl)=N3)cc2)cc1 (stereo not drawn) [Compound 6] | < 50 | 90 to 100 | 90 to 100 | 90 to 100 | 90 to 100 |  |  | 
COc1ccc(-c2ccc(C3COC(c4c(Cl)cncc4Cl)=N3)cc2)cn1 (stereo not drawn) [Compound 7] |  |  | 90 to 100 | 60 to 69 | 80 to 89 |  |  | 
Cc1ccc(-c2ccc(C3COC(c4c(Cl)cncc4Cl)=N3)cc2)cc1C (stereo not drawn) [Compound 8] |  |  |  |  |  | 90 to 100 | 80 to 89 | 80 to 89
Cc1ccc(-c2ccc(C3COC(c4c(Cl)cncc4Cl)=N3)cc2)cc1 (stereo not drawn) [Compound 9] |  |  |  |  |  | 90 to 100 |  | 90 to 100
Cc1ccc(-c2ccc(C3COC(c4c(Cl)cncc4Cl)=N3)cc2)s1 (stereo not drawn) [Compound 10] |  |  |  |  |  | 80 to 89 | 90 to 100 | 60 to 69
Clc1cncc(Cl)c1C1=NC(c2ccc(I)cc2)CO1 (stereo not drawn) [Compound 11, 2-(3,5-dichloro-4-pyridinyl)-4-(4-iodophenyl)oxazoline] | 90 to 100 | 90 to 100 | 90 to 100 |  |  |  |  | 
Clc1cncc(Cl)c1C1=NC(c2ccc(-c3ccc4c(c3)OCO4)cc2)CO1 (stereo not drawn) [Compound 13] |  | 80 to 89 | < 50 | 60 to 69 | 90 to 100 |  |  | 
Fc1ccc(-c2ccc(C3COC(c4c(Cl)cncc4Cl)=N3)cc2)cc1F (stereo not drawn) [Compound 14] |  | 60 to 69 | 90 to 100 | 80 to 89 |  |  |  | 
FC(F)(F)c1cccc(-c2ccc(C3COC(c4c(Cl)cncc4Cl)=N3)cc2)c1 (stereo not drawn) [Compound 15] |  | < 50 | < 50 | 90 to 100 | 90 to 100 |  |  | 
Clc1ccccc1-c1ccc(C2COC(c3c(Cl)cncc3Cl)=N2)cc1 (stereo not drawn) [Compound 18] |  | 50 to 59 | < 50 |  | 80 to 89 |  |  | 
Fc1cccc(-c2ccc(C3COC(c4c(Cl)cncc4Cl)=N3)cc2)c1 (stereo not drawn) [Compound 19] | < 50 | < 50 | 90 to 100 |  | 60 to 69 |  |  | 
Clc1cccc(-c2ccc(C3COC(c4c(Cl)cncc4Cl)=N3)cc2)c1 (stereo not drawn) [Compound 20] |  |  |  |  |  |  | 90 to 100 | < 50
